{"source": "patent US6989386B2", "about": "“Pharmaceutically active ornithine derivatives, ammonium salts thereof and methods of making same” (Dana-Farber Cancer Institute, priority 2002, dated 2006)", "key": {"[1]": {"system": "folylpolyglutamate synthetase (FPGS)", "settings": "reported, Rosowsky et al., J. Med. Chem. 1986; cited from earlier work"}, "cell growth in culture": {"system": "cell growth in culture", "settings": "reported, Rosowsky et al., J. Med. Chem. 1986; cited from earlier work"}, "[2]": {"biological_target": "T1, dihydrofolate reductase (DHFR) (Mus musculus, UniProt P00375)", "T1 sequence (P00375 1-187)": "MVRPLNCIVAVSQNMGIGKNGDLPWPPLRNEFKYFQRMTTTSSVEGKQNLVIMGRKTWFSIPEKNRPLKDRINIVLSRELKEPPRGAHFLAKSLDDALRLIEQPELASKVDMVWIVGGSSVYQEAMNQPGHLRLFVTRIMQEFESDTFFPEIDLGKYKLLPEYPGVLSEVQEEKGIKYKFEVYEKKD", "settings": "reported, Rosowsky et al., J. Med. Chem. 1986; cited from earlier work"}}, "data": [{"compound": "NCCC[C@H](NC(=O)c1ccc(NCc2cnc3nc(N)nc(N)c3n2)cc1)C(=O)O", "note": "[APA-L-Orn, N^α-(4-amino-4-deoxypteroyl)-L-ornithine]", "values": [{"measurement": "Inhibition of folylpolyglutamate synthetase (FPGS)", "setting": "[1]", "result": "potent inhibitor"}, {"measurement": "Inhibition of cell growth in culture", "setting": "cell growth in culture", "result": "relatively inactive"}, {"measurement": "Inhibition of dihydrofolate reductase (DHFR)", "setting": "[2]", "result": "potent inhibitor"}]}, {"compound": "Nc1nc(N)c2nc(CNc3ccc(C(=O)N[C@@H](CCCNC(=O)c4ccccc4C(=O)O)C(=O)O)cc3)cnc2n1", "note": "[compound 7, N^α-(4-Amino-4-deoxypteroyl)-N^δ-hemiphthaloyl-L-ornithine]", "values": [{"measurement": "Stability when dissolved in dilute ammonium hydroxide", "setting": "dilute ammonium hydroxide solution", "result": "relatively stable"}]}, {"compound": "N.N.Nc1nc(N)c2nc(CNc3ccc(C(=O)N[C@@H](CCCNC(=O)c4ccccc4C(=O)O)C(=O)O)cc3)cnc2n1", "note": "[compound 8, N^α-(4-Amino-4-deoxypteroyl)N^δ-hemiphthaloyl-L-ornithine ammonium salt]", "values": [{"measurement": "Product decomposition on lyophilization of the ammonium hydroxide solution", "setting": "lyophilization of dilute ammonium hydroxide solution", "result": "minimal"}]}]}
